Measurements reported in patent US5030012A, “Pyroelectric calorimeter” (The United States of America as represented by the …, priority 1990, dated 1991).

Key:
[1] = system: dark-adapted bullfrog retinas (rods); test: Pyroelectric calorimetry and transretinal voltage of flash-stimulated dark-adapted retinas; format: cell-based, bullfrog (R. catesbiana)
Method: Dark-adapted bullfrog (R. catesbiana) retinas, removed under infrared illumination, were stored for 10 min to 1 hr in an oxygenated bath containing (in mM) Na^+ : 100, K^+ : 2.7, Ca^++ : 1.4, Mg^++ : 0.5, phosphate: 0.5, HEPES: 10, glucose: 11, EDTA: 0.01, pH 7.1. Cl^- was the main anion. Disks 6.3 mm. across were cut from a retina and attached by their vitreal surfaces to 25 μm. thick nylon mesh (Small Parts, Ltd., Miami, Fla.) disks of the same diameter.
Before use, each disk was soaked for 5 min in a medium containing 10 mM glutamate and 5 mM cysteine to suppress electrical responses from all retinal cells except the rods, cones and glial Muller cells. Using an infrared viewer, the disks were placed on the detector with receptor layer down and excess fluid was blotted away. Flowing moist oxygen replaced the atmosphere every 2 m.
6 μs flashes of spectral width 70 nm. centered at 500, 550 or 640 nm. from a Xenon flash tube were attenuated by a circular graded wedge and fed via a light pipe whose end was projected to a 6 mm circle at the retina. A computerized stepping motor turned the wedge so that flashes of varying intensity could be quickly delivered. The light input at the retina was measured with a silicon photovoltaic diode (International Light, Inc., Newburyport, Mass.). Exposures of the OS were calculated for a rod density in the retinal mosaic of 1.76×10^6 cm^-2. Cone and green rod pigments were neglected and rod porphyropsin was lumped with rhodopsin. Assuming the quantum efficiency of rhodopsin photoisomerization to be 0.6 and its molar absorbance at 550 nm to be 2.0×10^4 M^-1 cm^-1, its isomerization cross section ZR was 4.6×10^-17 cm^2.
In retinas incubated in glutamate Ringer containing […] and a ql of 1-2 μK followed by steady cooling lasting for more than 20 s. or until the dark current resumed. A second flash while the dark current was suppressed (as judged by the absence of change in Vr) gave no ql and no change in rl. In 30 experiments, Vr responses, whose amplitudes corresponded to dark currents of 20-50 pA/rod, were accompanied by ql bursts of 0.8 to 2 μK (mean ±s.e.e.: 1.09±0.05, n=24) while rl varied from -2 to -5 μKs^-1.
ql was unchanged by several agents that suppressed the dark current and changed rl. In this regard, the effects of flashes causing 180 PI/rod on retinal temperature and transretinal voltage were studied with an average of 2-4 trials with 60 s intervals between flashes, during which ql recovered. 30 mM ca^++ in the incubation fluid reduced Vr sixfold and changed rl 's sign while ql remained […] (n=4) μK. […] Nevertheless, a 180 PI/OS flash produced a ql of 1.6±0.1 (n=3) μK and rl of 4 μK/s.

[2] = biological target: cGMP-induced cationic conductance of rod outer segment membrane patches; conditions: cited from earlier work

CC(C)Cn1c(=O)n(C)c(=O)c2[nH]cnc21 [IBMX]
Vr (transretinal voltage response) ([1]; 500 IBMX, 180 PI/rod): suppressed | ql (fast heat burst) ([1]; 500 IBMX, 180 PI/rod): suppressed | Vr (transretinal voltage response) ([1]; 500 IBMX, tenfold brighter flashes): slow Vr waves | ql (delayed heat) ([1]; 500 IBMX, tenfold brighter flashes, n=6): 2.1±0.1 μK

Nc1nc2c(ncn2[C@@H]2O[C@@H]3COP(=O)(O)O[C@H]3[C@H]2O)c(=O)[nH]1 [cGMP]
Kd ([2]; membrane patch conductance vs free [cGMP], various studies, read-out: dissociation constant Kc): 10 to 42 µM | concentration at which the cationic conductance of outer segment membranes increases rapidly and reversibly ([2]; outer segment membranes): > 5 µM

c1c[nH]cn1 [imidazole]
ql (fast heat burst) ([1]; 20 mM imidazole in incubation medium, n=3): 2.4±0.4 μK

C[C@@H]1O[C@@H](O[C@H]2C[C@@H](O)[C@]3(CO)[C@H]4[C@H](O)C[C@]5(C)[C@@H](C6=CC(=O)OC6)CC[C@]5(O)[C@@H]4CC[C@]3(O)C2)[C@H](O)[C@H](O)[C@H]1O [ouabain]
Vr (transretinal voltage response) ([1]; 50 μM ouabain, 10 m. incubation): no Vr | rl (steady heat flux) ([1]; 50 μM ouabain, 180 PI/OS flash): 4 μK/s | ql (fast heat burst) ([1]; 50 μM ouabain, 180 PI/OS flash, n=3): 1.6±0.1 μK
